Laboratory results as given in ChEMBL document CHEMBL3885861, “Open TG-GATES”.

Organism: Rattus norvegicus
Test: Open TG-GATES - Regimen: Single
Format: toxicity, organism-based, Sprague-Dawley
Design: regimen Single, gender Male, age 6 weeks
Settings: in vivo, po, route gavage; for APTT / Bas / Eos / Fbg / Hb / Ht / Lym / MCH / MCHC / MCV / Mono / Neu / PT / Plat / RBC / Ret / WBC: tissue Blood; for KIDNEY_L / KIDNEY_R / KIDNEY_TOTAL: tissue Kidney; for ALP / ALT / AST / CRE / Cl / DBIL / GLC / IP / K / LDH / Na / PL / RALB / TBIL / TC / TG / TP / gamma-GTP: tissue Plasma

Compound COc1cc2c(c(OC)c1OC)-c1ccc(OC)c(=O)cc1[C@@H](NC(C)=O)CC2 [COLCHICINE] has an APTT (2 mg/kg, 3 h, dose level Low) of 16.6 s, a Bas (2 mg/kg, 3 h, dose level Low) of 0% and an Eos (2 mg/kg, 3 h, dose level Low) of 1%. It also gave a Fbg (2 mg/kg, 3 h, dose level Low) of 218.6 mg/dL, a Hb (2 mg/kg, 3 h, dose level Low) of 13.5 g/dL and a Ht (2 mg/kg, 3 h, dose level Low) of 40.7%. For the same compound, the Lym (2 mg/kg, 3 h, dose level Low) was 84.4%, the MCH (2 mg/kg, 3 h, dose level Low) was 21.9 pg and the MCHC (2 mg/kg, 3 h, dose level Low) was 33.2%. For the same compound, the MCV (2 mg/kg, 3 h, dose level Low) was 66.1 fL, the Mono (2 mg/kg, 3 h, dose level Low) was 6.2% and the Neu (2 mg/kg, 3 h, dose level Low) was 8.8%. It also gave a PT (2 mg/kg, 3 h, dose level Low) of 11.8 s, a Plat (2 mg/kg, 3 h, dose level Low) of 109.4 x10_4/uL and an RBC (2 mg/kg, 3 h, dose level Low) of 616.8 x10_4/ul. For the same compound, the Ret (2 mg/kg, 3 h, dose level Low) was 10.2%, the WBC (2 mg/kg, 3 h, dose level Low) was 106.7 x10_2/uL and the KIDNEY_L (2 mg/kg, 3 h, dose level Low) was 1 g. It also gave a KIDNEY_R (2 mg/kg, 3 h, dose level Low) of 1 g, a KIDNEY_TOTAL (2 mg/kg, 3 h, dose level Low) of 2 g and an ALP (2 mg/kg, 3 h, dose level Low) of 946.8 IU/L. It also gave an ALT (2 mg/kg, 3 h, dose level Low) of 41.6 IU/L, an AST (2 mg/kg, 3 h, dose level Low) of 84.4 IU/L and a CRE (2 mg/kg, 3 h, dose level Low) of 0.5 mg/dL. It also gave a Cl (2 mg/kg, 3 h, dose level Low) of 104 meq/L, a DBIL (2 mg/kg, 3 h, dose level Low) of 0.01 mg/dL and a GLC (2 mg/kg, 3 h, dose level Low) of 199.8 mg/dL. It also gave an IP (2 mg/kg, 3 h, dose level Low) of 9.3 mg/dL, a K (2 mg/kg, 3 h, dose level Low) of 4.7 meq/L and an LDH (2 mg/kg, 3 h, dose level Low) of 137.8 IU/L. It also gave a Na (2 mg/kg, 3 h, dose level Low) of 140.2 meq/L, a PL (2 mg/kg, 3 h, dose level Low) of 143.6 mg/dL and an RALB (2 mg/kg, 3 h, dose level Low) of 3.7 g/dL. The TBIL (2 mg/kg, 3 h, dose level Low) was 0.4 mg/dL, the TC (2 mg/kg, 3 h, dose level Low) was 80.6 mg/dL and the TG (2 mg/kg, 3 h, dose level Low) was 57.6 mg/dL. It also gave a TP (2 mg/kg, 3 h, dose level Low) of 5.5 g/dL, a gamma-GTP (2 mg/kg, 3 h, dose level Low) of 1.8 IU/L and a TERMINAL_BW (2 mg/kg, 6 h, dose level Low) of 217.7 g. For the same compound, the APTT (2 mg/kg, 6 h, dose level Low) was 16.3 s, the Bas (2 mg/kg, 6 h, dose level Low) was 0% and the Eos (2 mg/kg, 6 h, dose level Low) was 1%. It also gave a Fbg (2 mg/kg, 6 h, dose level Low) of 218.8 mg/dL, a Hb (2 mg/kg, 6 h, dose level Low) of 13.4 g/dL and a Ht (2 mg/kg, 6 h, dose level Low) of 40.8%. For the same compound, the Lym (2 mg/kg, 6 h, dose level Low) was 81%, the MCH (2 mg/kg, 6 h, dose level Low) was 21.6 pg and the MCHC (2 mg/kg, 6 h, dose level Low) was 32.7%. It also gave an MCV (2 mg/kg, 6 h, dose level Low) of 65.9 fL, a Mono (2 mg/kg, 6 h, dose level Low) of 6.8% and a Neu (2 mg/kg, 6 h, dose level Low) of 11.2%. For the same compound, the PT (2 mg/kg, 6 h, dose level Low) was 11.9 s, the Plat (2 mg/kg, 6 h, dose level Low) was 109.8 x10_4/uL and the RBC (2 mg/kg, 6 h, dose level Low) was 620 x10_4/ul. The Ret (2 mg/kg, 6 h, dose level Low) was 9.8%, the WBC (2 mg/kg, 6 h, dose level Low) was 115.2 x10_2/uL and the KIDNEY_L (2 mg/kg, 6 h, dose level Low) was 0.9 g. For the same compound, the KIDNEY_R (2 mg/kg, 6 h, dose level Low) was 0.9 g, the KIDNEY_TOTAL (2 mg/kg, 6 h, dose level Low) was 1.9 g and the ALT (2 mg/kg, 6 h, dose level Low) was 40.8 IU/L. For the same compound, the AST (2 mg/kg, 6 h, dose level Low) was 81.8 IU/L, the CRE (2 mg/kg, 6 h, dose level Low) was 0.5 mg/dL and the Cl (2 mg/kg, 6 h, dose level Low) was 104.4 meq/L. It also gave a DBIL (2 mg/kg, 6 h, dose level Low) of 0.03 mg/dL, a GLC (2 mg/kg, 6 h, dose level Low) of 188.6 mg/dL and an IP (2 mg/kg, 6 h, dose level Low) of 9.8 mg/dL. For the same compound, the K (2 mg/kg, 6 h, dose level Low) was 4.7 meq/L, the LDH (2 mg/kg, 6 h, dose level Low) was 113.6 IU/L and the Na (2 mg/kg, 6 h, dose level Low) was 140.2 meq/L. For the same compound, the PL (2 mg/kg, 6 h, dose level Low) was 131.6 mg/dL, the RALB (2 mg/kg, 6 h, dose level Low) was 3.7 g/dL and the TBIL (2 mg/kg, 6 h, dose level Low) was 0.4 mg/dL. It also gave a TC (2 mg/kg, 6 h, dose level Low) of 73 mg/dL, a TG (2 mg/kg, 6 h, dose level Low) of 49.6 mg/dL and a TP (2 mg/kg, 6 h, dose level Low) of 5.5 g/dL. The gamma-GTP (2 mg/kg, 6 h, dose level Low) was 1.2 IU/L, the TERMINAL_BW (2 mg/kg, 9 h, dose level Low) was 215.3 g and the APTT (2 mg/kg, 9 h, dose level Low) was 16.2 s. It also gave a Bas (2 mg/kg, 9 h, dose level Low) of 0%, an Eos (2 mg/kg, 9 h, dose level Low) of 0.8% and a Fbg (2 mg/kg, 9 h, dose level Low) of 212.4 mg/dL. The Hb (2 mg/kg, 9 h, dose level Low) was 12.9 g/dL, the Ht (2 mg/kg, 9 h, dose level Low) was 39% and the Lym (2 mg/kg, 9 h, dose level Low) was 72.2%. It also gave an MCH (2 mg/kg, 9 h, dose level Low) of 21.2 pg, an MCHC (2 mg/kg, 9 h, dose level Low) of 33.1% and an MCV (2 mg/kg, 9 h, dose level Low) of 64.1 fL. It also gave a Mono (2 mg/kg, 9 h, dose level Low) of 11.8%, a Neu (2 mg/kg, 9 h, dose level Low) of 15.6% and a PT (2 mg/kg, 9 h, dose level Low) of 11.7 s. It also gave a Plat (2 mg/kg, 9 h, dose level Low) of 114.1 x10_4/uL, an RBC (2 mg/kg, 9 h, dose level Low) of 609.6 x10_4/ul and a Ret (2 mg/kg, 9 h, dose level Low) of 9.8%. For the same compound, the WBC (2 mg/kg, 9 h, dose level Low) was 101.3 x10_2/uL, the KIDNEY_L (2 mg/kg, 9 h, dose level Low) was 1 g and the KIDNEY_R (2 mg/kg, 9 h, dose level Low) was 1 g. For the same compound, the KIDNEY_TOTAL (2 mg/kg, 9 h, dose level Low) was 2 g, the ALP (2 mg/kg, 9 h, dose level Low) was 888 IU/L and the ALT (2 mg/kg, 9 h, dose level Low) was 47.6 IU/L. For the same compound, the AST (2 mg/kg, 9 h, dose level Low) was 93.4 IU/L, the CRE (2 mg/kg, 9 h, dose level Low) was 0.5 mg/dL and the Cl (2 mg/kg, 9 h, dose level Low) was 105.2 meq/L. The DBIL (2 mg/kg, 9 h, dose level Low) was 0.072 mg/dL, the GLC (2 mg/kg, 9 h, dose level Low) was 189.2 mg/dL and the IP (2 mg/kg, 9 h, dose level Low) was 9.4 mg/dL. It also gave a K (2 mg/kg, 9 h, dose level Low) of 4.8 meq/L, an LDH (2 mg/kg, 9 h, dose level Low) of 115 IU/L and a Na (2 mg/kg, 9 h, dose level Low) of 137.4 meq/L. For the same compound, the PL (2 mg/kg, 9 h, dose level Low) was 130 mg/dL, the RALB (2 mg/kg, 9 h, dose level Low) was 3.7 g/dL and the TBIL (2 mg/kg, 9 h, dose level Low) was 0.4 mg/dL. For the same compound, the TC (2 mg/kg, 9 h, dose level Low) was 80.4 mg/dL, the TG (2 mg/kg, 9 h, dose level Low) was 36.2 mg/dL and the TP (2 mg/kg, 9 h, dose level Low) was 5.4 g/dL. It also gave a gamma-GTP (2 mg/kg, 9 h, dose level Low) of 1.4 IU/L, a TERMINAL_BW (2 mg/kg, 24 h, dose level Low) of 231.9 g and an APTT (2 mg/kg, 24 h, dose level Low) of 17.8 s. For the same compound, the Bas (2 mg/kg, 24 h, dose level Low) was 0%, the Eos (2 mg/kg, 24 h, dose level Low) was 1% and the Fbg (2 mg/kg, 24 h, dose level Low) was 213 mg/dL. For the same compound, the Hb (2 mg/kg, 24 h, dose level Low) was 12.8 g/dL, the Ht (2 mg/kg, 24 h, dose level Low) was 38.5% and the Lym (2 mg/kg, 24 h, dose level Low) was 79.6%. The MCH (2 mg/kg, 24 h, dose level Low) was 22.1 pg, the MCHC (2 mg/kg, 24 h, dose level Low) was 33.3% and the MCV (2 mg/kg, 24 h, dose level Low) was 66.4 fL. For the same compound, the Mono (2 mg/kg, 24 h, dose level Low) was 7.6%, the Neu (2 mg/kg, 24 h, dose level Low) was 11.8% and the PT (2 mg/kg, 24 h, dose level Low) was 11.3 s. The Plat (2 mg/kg, 24 h, dose level Low) was 108 x10_4/uL, the RBC (2 mg/kg, 24 h, dose level Low) was 580.6 x10_4/ul and the Ret (2 mg/kg, 24 h, dose level Low) was 9.1%. The WBC (2 mg/kg, 24 h, dose level Low) was 127.4 x10_2/uL, the KIDNEY_L (2 mg/kg, 24 h, dose level Low) was 1.1 g and the KIDNEY_R (2 mg/kg, 24 h, dose level Low) was 1.1 g. The KIDNEY_TOTAL (2 mg/kg, 24 h, dose level Low) was 2.1 g, the ALP (2 mg/kg, 24 h, dose level Low) was 972.6 IU/L and the ALT (2 mg/kg, 24 h, dose level Low) was 37.2 IU/L. The AST (2 mg/kg, 24 h, dose level Low) was 69 IU/L, the CRE (2 mg/kg, 24 h, dose level Low) was 0.6 mg/dL and the Cl (2 mg/kg, 24 h, dose level Low) was 103.4 meq/L. For the same compound, the DBIL (2 mg/kg, 24 h, dose level Low) was 0.05 mg/dL, the GLC (2 mg/kg, 24 h, dose level Low) was 201.2 mg/dL and the IP (2 mg/kg, 24 h, dose level Low) was 6.6 mg/dL. It also gave a K (2 mg/kg, 24 h, dose level Low) of 4.4 meq/L, an LDH (2 mg/kg, 24 h, dose level Low) of 113 IU/L and a Na (2 mg/kg, 24 h, dose level Low) of 139 meq/L. For the same compound, the PL (2 mg/kg, 24 h, dose level Low) was 156.6 mg/dL, the RALB (2 mg/kg, 24 h, dose level Low) was 3.8 g/dL and the TBIL (2 mg/kg, 24 h, dose level Low) was 0.4 mg/dL. It also gave a TC (2 mg/kg, 24 h, dose level Low) of 83.6 mg/dL, a TG (2 mg/kg, 24 h, dose level Low) of 125.8 mg/dL and a TP (2 mg/kg, 24 h, dose level Low) of 5.7 g/dL. The gamma-GTP (2 mg/kg, 24 h, dose level Low) was 1 IU/L and the TERMINAL_BW (5 mg/kg, 3 h, dose level Middle) was 224.6 g.
